In patent US20260041744A1, “Methods for Treating Pompe Disease” (Amicus Therapeutics, Inc., priority 2022, published 2026):

How the values were obtained:
Pompe disease patients = assay: Cross-study comparison of long-term effects on 6MWD and FVC (Example 12); assay type: in vivo, human; conditions: ERT-experienced patients
Description: FIG. 53A-FIG. 53B show the 6-minute walk test (6MWT) percentage predicted during treatment with alglucosidase alfa. […] The data from year 2 onward show the decline expected in ERT-experienced patients remaining on alglucosidase alfa.

[1] = in vivo
Protocol: The ongoing open-label extension (OLE) of PROPEL (NCT04138277; ATB200-07) evaluates long-term safety and efficacy of cipa/mig. Outcomes include 6 minute walk distance (6MWD), forced vital capacity (FVC), creatine kinase (CK) and hexose tetrasaccharide (Hex4) levels and safety. Data are reported as change from the PROPEL baseline to OLE week 52 (104 weeks after the PROPEL baseline).

[2] = tested on: adult subjects with Pompe disease; assay: Pooled Studies ATB200-02/03/07: MMT lower extremity score by exposure interval
[3] = tested on: adults with Pompe disease; assay: Study ATB200-02: GSGC, 10MWT, TUG; assay type: in vivo, human
Description: The study design includes 4 stages and 4 cohorts, with Stages 1 and 2 only for Cohort 1 and Stages 3 and 4 for all 4 cohorts (FIG. 79).
The 4 cohorts in the study are as follows: • Cohort 1: ERT-experienced (2 to 6 years) ambulatory subjects (11 subjects) • Cohort 2: ERT-experienced (≥2 years) non-ambulatory subjects (6 subjects) • Cohort 3: ERT-naïve ambulatory subjects (6 subjects)· • Cohort 4: ERT-experienced (≥7 years) ambulatory subjects (6 subjects)

[4] = Study ATB200-02: safety (TEAEs); conditions: in vivo
Description: Mean (SD) duration of treatment was 37.2 (14.48), 19.9 (4.13) and 36.9 (12.14) months in cohorts 1 (prior ERT 2-6 years), 4 (prior ERT ≥7 years) and 3 (ERT naive), respectively.
Mean (SD) duration of treatment was 46.3 (22.86) months.

[5] = tested on: adult subjects with late-onset Pompe disease (LOPD); assay: Study ATB200-03: SGIC, PGIC and additional PROs (PROMIS-dyspnea, PROMIS-upper extremity, R-PAct, EQ-5D-5L); assay type: in vivo, human; conditions: week 52
Description: Additional PROs included PROMIS-dyspnea, PROMIS-upper extremity, R-PACT, EQ-5D-5L, SGIC. The PGIC was also included.
Across all of these domains a greater percentage of patients in the overall population treated with cipaglucosidase alfa/miglustat reported improvement, and a lower percentage reported worsening, compared with patients treated with alglucosidase alfa. […] Results are shown below for the SGIC overall physical well-domain, which is representative of the benefits reported across these measures (FIG. 86).

[6] = tested on: adult subjects with late-onset Pompe disease (LOPD); assay: Study ATB200-03 (PROPEL): MMT lower extremity score; assay type: in vivo, human; conditions: for CHG to Week 52 in MMT lower extremity score, LS Mean: MMRM, actual time point of assessments; for MMT lower extremity score CHG, LS means (SE): Week 52, ANCOVA
Protocol: The test for the primary endpoint was conducted first at the 1-sided 0.025 significance level, and if significant, the ordered key secondary endpoints were similarly tested at the same significance level. The statistical significance of the key secondary endpoints was interpreted following a hierarchical testing order, each at the 1-sided alpha level of 0.025. […] Primary analyses of efficacy were performed using the mixed-effect model for repeated measures (MMRM) for 6MWD in Intent-to-treat Observed Population (ITT) that includes all available, observed data without any missing data imputation (ITT-OBS) and analysis of covariance (ANCOVA) for all other endpoints in the Intent-to-Treat-Last Observation Carried Forward (ITT-LOCF) Population. A nonparametric randomization based ANCOVA was specified as the first sensitivity analysis for 6MWD and FVC. […] For the purposes of data presentation in this document, 2-sided p-values are reported hereafter, except as otherwise noted.

Gaa KO mice = assay: Single fiber analysis (LAMP1/LC3 co-immunofluorescence, white gastrocnemius); assay type: in vivo, mouse; conditions: single fibers
Description: FIG. 17 depicts co-immunofluorescent staining of LAMP1 (green) (see for example, “B”) and LC3 (red) (see, for example, “A”) in single fibers isolated from the white gastrocnemius of Gaa KO mice treated with a vehicle, alglucosidase alfa, or ATB200. “C” depicts clearance of autophagic debris and absence of enlarged lysosome. A minimum of 30 fibers were examined from each animal.
As a result, a significant portion of muscle fibers analyzed (36-60%) from ATB200-treated mice appeared normal or near-normal.

[7] = tested on: adult subjects with late-onset Pompe disease (LOPD); assay: Study ATB200-03 (PROPEL): GSGC total score; assay type: in vivo, human; conditions: for CHG to Week 52 in GSGC total score, LS Mean: MMRM, actual time point of assessments, decrease indicates improvement; for GSGC total score CHG, LS means (SE): Week 52, ANCOVA
Protocol: The test for the primary endpoint was conducted first at the 1-sided 0.025 significance level, and if significant, the ordered key secondary endpoints were similarly tested at the same significance level. […] A nonparametric randomization based ANCOVA was specified as the first sensitivity analysis for 6MWD and FVC. […] For the purposes of data presentation in this document, 2-sided p-values are reported hereafter, except as otherwise noted.

[8] = Ambulatory ERT-experienced, 12 months
[9] = Ambulatory ERT-experienced, 24 months
[10] = Ambulatory ERT-experienced, 36 months
[11] = Ambulatory ERT-experienced, 48 months
[12] = Ambulatory ERT-naïve, 12 months
[13] = Ambulatory ERT-naïve, 24 months
[14] = Ambulatory ERT-naïve, 36 months
[15] = Ambulatory ERT-naïve, 48 months
[16] = Baseline, ITT, ERT-naïve Population excluding Subject 4005-2511
[17] = ERT-naïve excluding Subject 4005-2511
[18] = ITT-OBS excluding Subject 4005-2511 (overall)
[19] = ITT-OBS excluding Subject 4005-2511, ERT-naïve Subjects
[20] = ITT-OBS, ERT-experienced Subjects
[21] = Week 52-LOCF, ERT-experienced Population
[22] = Week 52-LOCF, ERT-naïve Population excluding Subject 4005-2511
[23] = Week 52-LOCF, ITT excluding Subject 4005-2511
[24] = ITT-LOCF excluding Subject 4005-2511
[25] = ITT-LOCF, ERT-experienced Population
[26] = Week 52-LOCF, ERT-naïve Subjects excluding Subject 4005-2511

ATB200/miglustat: two-component therapy: cipaglucosidase alfa (ATB200) administered in conjunction with miglustat (AT2221), a stabilizer of cipaglucosidase alfa
long-term motor function by 6MWD after switching from alglucosidase alfa (Pompe disease patients): progressive gains in motor function as assessed by 6MWD
long-term pulmonary function by FVC after switching from alglucosidase alfa (Pompe disease patients): stability in pulmonary function as assessed by FVC
patients who discontinued the OLE due to infusion-associated reactions [1]: Three
safety and tolerability up to 104 weeks [1]: No new safety signals were identified
mean (SD) change from baseline in MMT lower extremity score ([2]; exposure >15 to ≤24 months (n=101)): 1.73 (3.675)
mean (SD) change from baseline in MMT lower extremity score ([2]; exposure >24 months (n=65)): 1.98 (4.527)
mean (SD) change from baseline in MMT lower extremity score ([2]; exposure ≤15 months (n=135)): 1.36 (3.807)
10-Meter Walk Test, CFBL mean [3, 8]: −0.1 seconds
Gait, Stairs, Gowers, and Chair, CFBL mean [3, 8]: −1.3
Timed Up and Go, CFBL mean [3, 8]: -1.5 s
10-Meter Walk Test, CFBL mean [3, 9]: 1.0 seconds
Gait, Stairs, Gowers, and Chair, CFBL mean [3, 9]: −1.6
Timed Up and Go, CFBL mean [3, 9]: 0.1 s
10-Meter Walk Test, CFBL mean [3, 10]: 3.9 seconds
Gait, Stairs, Gowers, and Chair, CFBL mean [3, 10]: −1.1
Timed Up and Go, CFBL mean [3, 10]: -1.5 s
10-Meter Walk Test, CFBL mean [3, 11]: 0.6 seconds
Gait, Stairs, Gowers, and Chair, CFBL mean [3, 11]: −1.0
Timed Up and Go, CFBL mean [3, 11]: -0.6 s
10-Meter Walk Test, CFBL mean [3, 12]: −0.9 seconds
Gait, Stairs, Gowers, and Chair, CFBL mean [3, 12]: −0.8
Timed Up and Go, CFBL mean [3, 12]: -0.7 s
10-Meter Walk Test, CFBL mean [3, 13]: −0.5 seconds
Gait, Stairs, Gowers, and Chair, CFBL mean [3, 13]: −1.7
Timed Up and Go, CFBL mean [3, 13]: -1.0 s
10-Meter Walk Test, CFBL mean [3, 14]: 0.1 seconds
Gait, Stairs, Gowers, and Chair, CFBL mean [3, 14]: −2.0
Timed Up and Go, CFBL mean [3, 14]: 0.5 s
10-Meter Walk Test, CFBL mean [3, 15]: 0.7 seconds
Gait, Stairs, Gowers, and Chair, CFBL mean [3, 15]: −2.4
Timed Up and Go, CFBL mean [3, 15]: 0.3 s
GSGC CFB, mean ([3]; Cohort 1 + Cohort 3 + Cohort 4, 24-mo): −1.7
GSGC CFB, mean ([3]; Cohort 1 + Cohort 3 + Cohort 4, 48-mo): −1.5
GSGC CFB, mean ([3]; Cohort 1 + Cohort 4 (ERT-experienced), 24-mo, negative = improvement): −1.6
GSGC CFB, mean ([3]; Cohort 1 + Cohort 4 (ERT-experienced), 48-mo): −1.0
GSGC CFB, mean ([3]; Cohort 3 (ERT-naïve), 24-mo): −1.7
GSGC CFB, mean ([3]; Cohort 3 (ERT-naïve), 48-mo): −2.4
other measures of motor function incl. 10MWT, GSGC, TUG ([3]; ERT-experienced and ERT-naïve ambulatory subjects): improvements in other measures of motor function
TEAE profile / tolerability [4]: most TEAEs were mild or moderate in severity and did not lead to study withdrawal
SGIC and PGIC outcome [5]: SGIC and PGIC showed consistently greater improvement favoring cipaglucosidase alfa/miglustat treatment

alglucosidase alfa [reference compound]
MMT Lower Extremity Score Absolute Value, Mean [6, 16]: 33.57
MMT lower extremity score Absolute Value, Median [6, 16]: 32.00
mean (SD) change in MMT lower extremity score from baseline to Week 52 ([6]; ERT-experienced Population): 0.9 (2.81)
mean (SD) change in MMT lower extremity score from baseline to Week 52 [6, 17]: 1.0 (1.53)
Change in MMT lower extremity score baseline to Week 52, LS means (SE) from ANCOVA ([6]; ITT-LOCF, ERT-naïve Population excluding Subject 4005-2511): 0.69 (1.013)
CHG to Week 52 in MMT lower extremity score, LS Mean [6, 18]: 0.7
CHG to Week 52 in MMT lower extremity score, LS Mean [6, 19]: −0.0
CHG to Week 52 in MMT lower extremity score, LS Mean [6, 20]: 0.9
MMT lower extremity score Absolute Value, Mean (SD) [6, 21]: 26.96 (6.802)
MMT lower extremity score Absolute Value, Median [6, 21]: 28.00
MMT lower extremity score CHG, Mean (SD) [6, 21]: 0.85 (2.811)
MMT lower extremity score CHG, Median [6, 21]: 1.00
MMT Lower Extremity Score Absolute Value, Mean [6, 22]: 34.57
MMT Lower Extremity Score CHG (change from baseline), Mean [6, 22]: 1.00
MMT Lower Extremity Score CHG (change from baseline), Median [6, 22]: 2.00
MMT lower extremity score Absolute Value, Median [6, 22]: 34.00
MMT lower extremity score Absolute Value, Mean (SD) [6, 23]: 28.53 (6.999)
MMT lower extremity score Absolute Value, Median [6, 23]: 29.00
MMT lower extremity score CHG, Mean (SD) [6, 23]: 0.88 (2.579)
MMT lower extremity score CHG, Median [6, 23]: 1.00
MMT lower extremity score CHG, LS means (SE) [6, 24]: 0.68 (0.603)
MMT lower extremity score CHG, LS means (SE) [6, 25]: 0.90 (0.735)
mean (SD) change in MMT lower extremity score from baseline to Week 52 ([6]; overall population): 0.9 (2.58)
Fibers with Autophagy Buildup (Gaa KO mice): >90%
Fibers with Normal or Near-normal Appearance (Gaa KO mice): <10%
GSGC Total Score Absolute Value, Median ([7]; Baseline, ITT, ERT-naïve Subjects excluding Subject 4005-2511): 9.00
GSGC Total Score Absolute Value, Mean ([7]; Baseline, ITT, ERT-naïve Subjects excluding Subject 4005-2511, 4 points (normal) to 27 points (worst)): 10.86
mean (SD) change in GSGC total score from baseline to Week 52 ([7]; ERT-experienced Population): 0.6 (1.83)
mean (SD) change in GSGC total score from baseline to Week 52 [7, 17]: 1.3 (1.80)
Change in GSGC total score baseline to Week 52, LS means (SE) from ANCOVA ([7]; ITT-LOCF, ERT-naïve Subjects excluding Subject 4005-2511): 0.91 (1.042)
CHG to Week 52 in GSGC total score, LS Mean [7, 18]: 0.8
CHG to Week 52 in GSGC total score, LS Mean [7, 19]: 1.3
CHG to Week 52 in GSGC total score, LS Mean [7, 20]: 0.5
GSGC Total Score Absolute Value, Mean [7, 21]: 15.87
GSGC Total Score Absolute Value, Median [7, 21]: 17.00
GSGC Total Score CHG, Mean [7, 21]: 0.61
GSGC total score CHG, Median [7, 21]: 0.00
GSGC Total Score Absolute Value, Mean [7, 26]: 12.14
GSGC Total Score Absolute Value, Median [7, 26]: 10.00
GSGC Total Score CHG (change from baseline), Mean [7, 26]: 1.29
GSGC Total Score CHG (change from baseline), Median [7, 26]: 1.00
GSGC Total Score Absolute Value, Median [7, 23]: 16.00
GSGC total score Absolute Value, Mean (SD) [7, 23]: 15.00 (4.488)
GSGC total score CHG, Mean (SD) [7, 23]: 0.77 (1.813)
GSGC total score CHG, Median [7, 23]: 0.50
GSGC total score CHG, LS means (SE) [7, 24]: 0.847 (0.440)
GSGC total score CHG, LS means (SE) [7, 25]: 0.65 (0.494)
GSGC outcome ([7]; overall (and ERT-experienced) population, week 52): worsening
mean (SD) change in GSGC total score from baseline to Week 52 ([7]; overall population, negative = improvement, listed as alglucosidase alfa and placebo): 0.77 (1.8)
mean (SD) change in GSGC total score from baseline to Week 52 ([7]; overall population, negative = improvement, listed as alglucosidase alfa/placebo): 0.77 (1.81)
